Measurements as given in patent US11213517B2, “Pharmaceutical combination comprising a T-type calcium channel blocker” (IDORSIA PHARMACEUTICALS LTD, priority 2016, dated 2022).
Values joined by “and” are separate entries in the source; they are usually repeats but may differ in a detail not shown here. Equal entries are not always repeated. Where two headings read alike, the source gives them in different places.

Experiments:
[1] = system: audiogenic seizure-sensitive juvenile DBA/2J mice; assay: Audiogenic seizure-sensitive juvenile DBA/2J mouse model of generalized tonic-clonic seizures; assay type: in vivo; parameters: key: 0 none, 1 wild running, 2 clonus, 3 hind-limb tonic extension; conditions: oral gavage, mean ± SEM
Excerpt: Audiogenic Seizure-Sensitive Juvenile DBA/2J Mouse Model of Generalized Tonic-Clonic Seizures
The inbred DBA/2J mouse strain carries an increased general susceptibility for acute generalized convulsive seizures induced by either pharmacological, electrical or, as juvenile, auditory stimuli. At the age of 17 to 28 days (juvenile), they show tonic-clonic convulsions when exposed to a loud tone.
Male juvenile DBA/2J mice (22-24 days old, body weight between 6.6 and 14.5 grams) were used. Each mouse was placed individually in the exposure chamber, an hemispheric acrylic glass dome (diameter: 50 cm) within a sound-attenuated box. After 60 seconds of habituation, an auditory stimulus of mixed frequency tone (15-20 kHz at 110 dB) was played from a speaker placed on the top center of the dome.
The sound-attenuated box was equipped with lights and a camera system in order to observe and record the behavioral seizure response classified as following: • stage 0, no response • stage 1, wild running • stage 2, clonus • stage 3, tonic extension of the hind limbs.
(§1) Different combination efficacy experiments are performed. […] Each experiment consists of four treatment groups: • 1. Vehicle (10% Polyethylene glycol400 (PEG400)/90% methylcellulose (0.5% in water; MC0.5%)), 3 h before exposure to the auditory stimulus+vehicle, 1 h before exposure to the auditory stimulus; • 2. COMPOUND 1 (in 10% PEG400/90% MC0.5%), 3 h before exposure to the auditory stimulus+vehicle, 1 h before exposure to the auditory stimulus; • 3. Vehicle, 3 h before exposure to the auditory stimulus+AED (in 10% PEG400/90% MC0.5%), 1 h before exposure to the auditory stimulus; and • 4. COMPOUND 1 (in 10% PEG400/90% MC0.5%), 3 h before exposure to the auditory stimulus+AED (in 10% PEG400/90% MC0.5%), 1 h before exposure to the auditory stimulus.

[2] = Plasma and brain concentrations of drugs at the end of the audiogenic seizure experiment (LC-MS); assay type: in vivo, mouse; conditions: for plasma and brain concentrations after administration of the compounds alone or in combination: juvenile DBA/2J mice; for concentration at 1 h: DBA/2J, mouse, oral
Method: Briefly, blood was sampled from the vena cava caudalis with a syringe pre-filled with EDTA (ethylenediamine tetraacetic acid) as anticoagulant and centrifuged to yield plasma (for 10 minutes, at 4° C. and 5000 rpm (rounds per minute)). Brain was sampled and homogenized into one volume of cold phosphate buffer (pH 7.4). Following extraction with methanol, concentrations of the compound in plasma and brain were determined using liquid chromatography coupled to mass spectrometry.
as §1

[3] = analyte LTG, vehicle 3 h + LTG 10 mg/kg 1 h before stimulus, oral gavage, mean ± SEM

CC[C@@H](C(N)=O)N1CCCC1=O [LEV, (S)-2-(2-oxopyrrolidin-1-yl)butanamide]
Seizure stage (maximal seizure stage observed during exposure to auditory stimulus) ([1]; vehicle 3 h + LEV 1 mg/kg 1 h before stimulus): 3.0 ± 0.0
Seizure stage (maximal seizure stage observed during exposure to auditory stimulus) ([1]; vehicle 3 h + LEV 1 mg/kg 1 h before stimulus, listed as levetiracetam): 3
Seizure stage (maximal seizure stage observed during exposure to auditory stimulus) ([1]; vehicle 3 h + LEV 3 mg/kg 1 h before stimulus): 2.1 ± 0.4 and 2.6 ± 0.3
plasma and brain concentrations after administration of the compounds alone or in combination ([2]; COMPOUND 1 and LEV): similar
concentration at 1 h ([2]; brain, 1 mg/kg, analyte LEV, vehicle 3 h + LEV 1 mg/kg 1 h before stimulus, oral gavage, mean ± SEM, read-out: Brain concentration total): 224 ± 20 ng/g
concentration at 1 h ([2]; brain, 3 mg/kg, analyte LEV, vehicle 3 h + LEV 3 mg/kg 1 h before stimulus, oral gavage, mean ± SEM, read-out: Brain concentration total): 677 ± 70 ng/g
concentration at 1 h ([2]; brain, 10 mg/kg, analyte LEV, vehicle 3 h + LEV 10 mg/kg 1 h before stimulus, oral gavage, mean ± SEM, read-out: Brain concentration total): 2130 ± 267 ng/g
concentration at 1 h ([2]; brain, 50 mg/kg, analyte LEV, vehicle 3 h + LEV 50 mg/kg 1 h before stimulus, oral gavage, mean ± SEM, read-out: Brain concentration total): 11100 ± 886 ng/g
concentration at 1 h ([2]; brain, analyte LEV, COMPOUND 1 10 mg/kg 3 h + LEV 1 mg/kg 1 h before stimulus, oral gavage, mean ± SEM, read-out: Brain concentration total): 310 ± 34 ng/g
concentration at 1 h ([2]; brain, analyte LEV, COMPOUND 1 10 mg/kg 3 h + LEV 3 mg/kg 1 h before stimulus, oral gavage, mean ± SEM, read-out: Brain concentration total): 787 ± 39 ng/g
concentration at 1 h ([2]; brain, analyte LEV, COMPOUND 1 10 mg/kg 3 h + LEV 10 mg/kg 1 h before stimulus, oral gavage, mean ± SEM, read-out: Brain concentration total): 2590 ± 169 ng/g
concentration at 1 h ([2]; brain, analyte LEV, COMPOUND 1 10 mg/kg 3 h + LEV 50 mg/kg 1 h before stimulus, oral gavage, mean ± SEM, read-out: Brain concentration total): 12600 ± 549 ng/g
concentration at 1 h ([2]; brain, analyte LEV, COMPOUND 1 30 mg/kg 3 h + LEV 3 mg/kg 1 h before stimulus, oral gavage, mean ± SEM, read-out: Brain concentration total): 714 ± 59 ng/g
concentration at 1 h ([2]; brain, analyte LEV, COMPOUND 1 30 mg/kg 3 h + LEV 10 mg/kg 1 h before stimulus, oral gavage, mean ± SEM, read-out: Brain concentration total): 2150 ± 142 ng/g
concentration at 1 h ([2]; brain, analyte LEV, COMPOUND 1 30 mg/kg 3 h + LEV 50 mg/kg 1 h before stimulus, oral gavage, mean ± SEM, read-out: Brain concentration total): 13500 ± 1380 ng/g
concentration at 1 h ([2]; plasma, 1 mg/kg, analyte LEV, vehicle 3 h + LEV 1 mg/kg 1 h before stimulus, oral gavage, mean ± SEM, read-out: Plasma concentration total): 541 ± 48 ng/mL
concentration at 1 h ([2]; plasma, 3 mg/kg, analyte LEV, vehicle 3 h + LEV 3 mg/kg 1 h before stimulus, oral gavage, mean ± SEM, read-out: Plasma concentration total): 1170 ± 53 ng/mL
concentration at 1 h ([2]; plasma, 10 mg/kg, analyte LEV, vehicle 3 h + LEV 10 mg/kg 1 h before stimulus, oral gavage, mean ± SEM, read-out: Plasma concentration total): 4530 ± 473 ng/mL
concentration at 1 h ([2]; plasma, 50 mg/kg, analyte LEV, vehicle 3 h + LEV 50 mg/kg 1 h before stimulus, oral gavage, mean ± SEM, read-out: Plasma concentration total): 26500 ± 2810 ng/mL
concentration at 1 h ([2]; plasma, analyte LEV, COMPOUND 1 10 mg/kg 3 h + LEV 1 mg/kg 1 h before stimulus, oral gavage, mean ± SEM, read-out: Plasma concentration total): 564 ± 42 ng/mL
concentration at 1 h ([2]; plasma, analyte LEV, COMPOUND 1 10 mg/kg 3 h + LEV 3 mg/kg 1 h before stimulus, oral gavage, mean ± SEM, read-out: Plasma concentration total): 1250 ± 53 ng/mL
concentration at 1 h ([2]; plasma, analyte LEV, COMPOUND 1 10 mg/kg 3 h + LEV 10 mg/kg 1 h before stimulus, oral gavage, mean ± SEM, read-out: Plasma concentration total): 5780 ± 232 ng/mL
concentration at 1 h ([2]; plasma, analyte LEV, COMPOUND 1 10 mg/kg 3 h + LEV 50 mg/kg 1 h before stimulus, oral gavage, mean ± SEM, read-out: Plasma concentration total): 27000 ± 1350 ng/mL
concentration at 1 h ([2]; plasma, analyte LEV, COMPOUND 1 30 mg/kg 3 h + LEV 3 mg/kg 1 h before stimulus, oral gavage, mean ± SEM, read-out: Plasma concentration total): 1230 ± 64 ng/mL
concentration at 1 h ([2]; plasma, analyte LEV, COMPOUND 1 30 mg/kg 3 h + LEV 10 mg/kg 1 h before stimulus, oral gavage, mean ± SEM, read-out: Plasma concentration total): 3880 ± 226 ng/mL
concentration at 1 h ([2]; plasma, analyte LEV, COMPOUND 1 30 mg/kg 3 h + LEV 50 mg/kg 1 h before stimulus, oral gavage, mean ± SEM, read-out: Plasma concentration total): 26200 ± 2400 ng/mL
Brain concentration total ([2]; analyte LEV, vehicle 3 h + LEV 3 mg/kg 1 h before stimulus, oral gavage, mean ± SEM): 675 ± 82 ng/g
Brain concentration total ([2]; analyte LEV, vehicle 3 h + LEV 10 mg/kg 1 h before stimulus, oral gavage, mean ± SEM): 2307 ± 207 ng/g
Brain concentration total ([2]; analyte LEV, vehicle 3 h + LEV 50 mg/kg 1 h before stimulus, oral gavage, mean ± SEM): 11318 ± 1440 ng/g

Nc1nnc(-c2cccc(Cl)c2Cl)c(N)n1 [LTG, 6-(2,3-dichlorophenyl)-1,2,4-triazine-3,5-diamine]
Seizure stage (maximal seizure stage observed during exposure to auditory stimulus) ([1]; vehicle 3 h + LTG 3 mg/kg 1 h before stimulus): 1.9 ± 0.2
Seizure stage (maximal seizure stage observed during exposure to auditory stimulus) ([1]; vehicle 3 h + LTG 3 mg/kg 1 h before stimulus, listed as lamotrigine): 2
Seizure stage (maximal seizure stage observed during exposure to auditory stimulus) ([1]; vehicle 3 h + LTG 30 mg/kg 1 h before stimulus): 0.2 ± 0.2 #
plasma and brain concentrations after administration of the compounds alone or in combination ([2]; COMPOUND 1 and lamotrigine): similar
concentration at 1 h ([2]; brain, 3 mg/kg, analyte LTG, vehicle 3 h + LTG 3 mg/kg 1 h before stimulus, oral gavage, mean ± SEM, read-out: Brain concentration total): 1490 ± 128 ng/g
concentration at 1 h ([2]; brain, 10 mg/kg, analyte LTG, vehicle 3 h + LTG 10 mg/kg 1 h before stimulus, oral gavage, mean ± SEM, read-out: Brain concentration total): 3260 ± 144 ng/g
concentration at 1 h ([2]; brain, 30 mg/kg, analyte LTG, vehicle 3 h + LTG 30 mg/kg 1 h before stimulus, oral gavage, mean ± SEM, read-out: Brain concentration total): 8890 ± 248 ng/g
concentration at 1 h ([2]; brain, analyte LTG, COMPOUND 1 10 mg/kg 3 h + LTG 10 mg/kg 1 h before stimulus, oral gavage, mean ± SEM, read-out: Brain concentration total): 3690 ± 393 ng/g
concentration at 1 h ([2]; brain, analyte LTG, COMPOUND 1 30 mg/kg 3 h + LTG 3 mg/kg 1 h before stimulus, oral gavage, mean ± SEM, read-out: Brain concentration total): 1370 ± 100 ng/g
concentration at 1 h ([2]; brain, analyte LTG, COMPOUND 1 30 mg/kg 3 h + LTG 10 mg/kg 1 h before stimulus, oral gavage, mean ± SEM, read-out: Brain concentration total): 3660 ± 310 ng/g
concentration at 1 h ([2]; brain, analyte LTG, COMPOUND 1 30 mg/kg 3 h + LTG 30 mg/kg 1 h before stimulus, oral gavage, mean ± SEM, read-out: Brain concentration total): 8560 ± 853 ng/g
concentration at 1 h ([2]; plasma, 3 mg/kg, analyte LTG, vehicle 3 h + LTG 3 mg/kg 1 h before stimulus, oral gavage, mean ± SEM, read-out: Plasma concentration total): 293 ± 27 ng/mL
concentration at 1 h ([2]; plasma, 10 mg/kg, analyte LTG, vehicle 3 h + LTG 10 mg/kg 1 h before stimulus, oral gavage, mean ± SEM, read-out: Plasma concentration total): 930 ± 77 ng/mL
concentration at 1 h ([2]; plasma, 30 mg/kg, analyte LTG, vehicle 3 h + LTG 30 mg/kg 1 h before stimulus, oral gavage, mean ± SEM, read-out: Plasma concentration total): 3560 ± 165 ng/mL
concentration at 1 h ([2]; plasma, analyte LTG, COMPOUND 1 10 mg/kg 3 h + LTG 10 mg/kg 1 h before stimulus, oral gavage, mean ± SEM, read-out: Plasma concentration total): 859 ± 101 ng/mL
concentration at 1 h ([2]; plasma, analyte LTG, COMPOUND 1 30 mg/kg 3 h + LTG 3 mg/kg 1 h before stimulus, oral gavage, mean ± SEM, read-out: Plasma concentration total): 284 ± 18 ng/mL
concentration at 1 h ([2]; plasma, analyte LTG, COMPOUND 1 30 mg/kg 3 h + LTG 10 mg/kg 1 h before stimulus, oral gavage, mean ± SEM, read-out: Plasma concentration total): 1330 ± 102 ng/mL
concentration at 1 h ([2]; plasma, analyte LTG, COMPOUND 1 30 mg/kg 3 h + LTG 30 mg/kg 1 h before stimulus, oral gavage, mean ± SEM, read-out: Plasma concentration total): 2800 ± 475 ng/mL
Brain concentration total [2, 3]: 4054 ± 323 ng/g
Plasma concentration total [2, 3]: 1203 ± 77 ng/mL
